Laboratory results published in PubChem BioAssay (NCI).
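Protocol summary: plate cells (96-well), add compound at 5 concentrations, incubate 48 h, interpolate endpoints linearly. GI50 marks 50% less growth. TGI is the concentration that stops growth completely.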

Experiments:
Test in all cases: NCI tumour cell line growth inhibition, 48 h
A498 renal = system: A498 renal
A549 NSCLC = system: A549 NSCLC
ACHN renal = system: ACHN renal
CAKI-1 renal = system: CAKI-1 renal
CCRF-CEM leukemia = system: CCRF-CEM leukemia
COLO 205 colon = system: COLO 205 colon
DU-145 prostate = system: DU-145 prostate
EKVX NSCLC = system: EKVX NSCLC
HCC-2998 colon = system: HCC-2998 colon
HL-60(TB) leukemia = system: HL-60(TB) leukemia
HOP-62 NSCLC = system: HOP-62 NSCLC
HOP-92 NSCLC = system: HOP-92 NSCLC
HS 578T breast = system: HS 578T breast
HT29 colon = system: HT29 colon
IGROV1 ovarian = system: IGROV1 ovarian
K-562 leukemia = system: K-562 leukemia
KM12 colon = system: KM12 colon
LOX IMVI melanoma = system: LOX IMVI melanoma
MALME-3M melanoma = system: MALME-3M melanoma
MDA-MB-231 breast = system: MDA-MB-231 breast
MDA-MB-435 = system: MDA-MB-435
MOLT-4 leukemia = system: MOLT-4 leukemia
NCI-H226 lung = system: NCI-H226 lung
NCI-H23 lung = system: NCI-H23 lung
NCI-H522 lung = system: NCI-H522 lung
OVCAR-4 ovarian = system: OVCAR-4 ovarian
OVCAR-5 ovarian = system: OVCAR-5 ovarian
OVCAR-8 ovarian = system: OVCAR-8 ovarian
PC-3 prostate = system: PC-3 prostate
RPMI-8226 leukemia = system: RPMI-8226 leukemia
RXF 393 renal = system: RXF 393 renal
SF-268 CNS = system: SF-268 CNS
SF-295 CNS = system: SF-295 CNS
SF-539 CNS = system: SF-539 CNS
SK-MEL-2 melanoma = system: SK-MEL-2 melanoma
SK-MEL-28 melanoma = system: SK-MEL-28 melanoma
SK-MEL-5 melanoma = system: SK-MEL-5 melanoma
SK-OV-3 ovarian = system: SK-OV-3 ovarian
SN12C renal = system: SN12C renal
SNB-19 CNS = system: SNB-19 CNS
SNB-75 CNS = system: SNB-75 CNS
SR leukemia = system: SR leukemia
T-47D breast = system: T-47D breast
TK-10 renal = system: TK-10 renal
UACC-257 melanoma = system: UACC-257 melanoma
UACC-62 melanoma = system: UACC-62 melanoma
UO-31 renal = system: UO-31 renal

O=C(/C=C/c1ccccc1Cl)c1nc2ccccc2n1Cc1ccc(F)cc1
GI50 (A498 renal): 61.8 µM | TGI (A498 renal): > 100 µM | GI50 (A549 NSCLC): 8.06 µM | TGI (A549 NSCLC): > 100 µM | GI50 (ACHN renal): 5.23 µM | TGI (ACHN renal): > 100 µM | GI50 (CAKI-1 renal): 3.47 µM | TGI (CAKI-1 renal): > 100 µM | GI50 (CCRF-CEM leukemia): 2.45 µM | TGI (CCRF-CEM leukemia): > 100 µM | GI50 (COLO 205 colon): 4.01 µM | TGI (COLO 205 colon): > 100 µM | GI50 (DU-145 prostate): 4.61 µM | TGI (DU-145 prostate): > 100 µM | GI50 (EKVX NSCLC): 6.44 µM | TGI (EKVX NSCLC): > 100 µM | GI50 (HCC-2998 colon): 3.16 µM | TGI (HCC-2998 colon): 55.8 µM | GI50 (HL-60(TB) leukemia): 2.51 µM | TGI (HL-60(TB) leukemia): > 100 µM | GI50 (HOP-62 NSCLC): 5.03 µM | TGI (HOP-62 NSCLC): 41.9 µM | GI50 (HOP-92 NSCLC): 16.4 µM | TGI (HOP-92 NSCLC): 62.8 µM | GI50 (HS 578T breast): 4.51 µM | TGI (HS 578T breast): 58.6 µM | GI50 (HT29 colon): 3.64 µM | TGI (HT29 colon): > 100 µM | GI50 (IGROV1 ovarian): 3.33 µM | TGI (IGROV1 ovarian): > 100 µM | GI50 (K-562 leukemia): 3.3 µM | TGI (K-562 leukemia): > 100 µM | GI50 (KM12 colon): 3.34 µM | TGI (KM12 colon): > 100 µM | GI50 (LOX IMVI melanoma): 1.65 µM | TGI (LOX IMVI melanoma): 3.23 µM | GI50 (MALME-3M melanoma): 8.22 µM | TGI (MALME-3M melanoma): 70.2 µM | GI50 (MDA-MB-231 breast): 2.59 µM | TGI (MDA-MB-231 breast): 6.68 µM | GI50 (MDA-MB-435): 2.37 µM | TGI (MDA-MB-435): 5.92 µM | GI50 (MOLT-4 leukemia): 3.04 µM | TGI (MOLT-4 leukemia): > 100 µM | GI50 (NCI-H226 lung): 25.4 µM | TGI (NCI-H226 lung): > 100 µM | GI50 (NCI-H23 lung): 4.25 µM | TGI (NCI-H23 lung): > 100 µM | GI50 (NCI-H522 lung): 4.49 µM | TGI (NCI-H522 lung): > 100 µM | GI50 (OVCAR-4 ovarian): 23 µM | TGI (OVCAR-4 ovarian): > 100 µM | GI50 (OVCAR-5 ovarian): 3.76 µM | TGI (OVCAR-5 ovarian): 73.1 µM | GI50 (OVCAR-8 ovarian): 3.25 µM | TGI (OVCAR-8 ovarian): > 100 µM | GI50 (PC-3 prostate): 4.45 µM | TGI (PC-3 prostate): > 100 µM | GI50 (RPMI-8226 leukemia): 2.97 µM | TGI (RPMI-8226 leukemia): > 100 µM | GI50 (RXF 393 renal): 2.06 µM | TGI (RXF 393 renal): 5.35 µM | GI50 (SF-268 CNS): 8.56 µM | TGI (SF-268 CNS): > 100 µM | GI50 (SF-295 CNS): 5.01 µM | TGI (SF-295 CNS): 25.1 µM | GI50 (SF-539 CNS): 2.33 µM | TGI (SF-539 CNS): 5.67 µM | GI50 (SK-MEL-2 melanoma): 13.4 µM | TGI (SK-MEL-2 melanoma): > 100 µM | GI50 (SK-MEL-28 melanoma): 2.75 µM | TGI (SK-MEL-28 melanoma): 7.72 µM | GI50 (SK-MEL-5 melanoma): 5.23 µM | TGI (SK-MEL-5 melanoma): > 100 µM | GI50 (SK-OV-3 ovarian): 32.5 µM | TGI (SK-OV-3 ovarian): > 100 µM | GI50 (SN12C renal): 20.1 µM | TGI (SN12C renal): > 100 µM | GI50 (SNB-19 CNS): 3.99 µM | TGI (SNB-19 CNS): 70 µM | GI50 (SNB-75 CNS): 3.3 µM | TGI (SNB-75 CNS): > 100 µM | GI50 (SR leukemia): 2.87 µM | TGI (SR leukemia): > 100 µM | GI50 (T-47D breast): 3.44 µM | TGI (T-47D breast): > 100 µM | GI50 (TK-10 renal): 6.22 µM | TGI (TK-10 renal): > 100 µM | GI50 (UACC-257 melanoma): 8.88 µM | TGI (UACC-257 melanoma): > 100 µM | GI50 (UACC-62 melanoma): 3.42 µM | TGI (UACC-62 melanoma): 17.9 µM | GI50 (UO-31 renal): 2.58 µM | TGI (UO-31 renal): 11.2 µM
